US4459290A, “C-23-Modified derivatives of OMT, pharmaceutical compositions and method of use” (priority 1982, dated 1984)
≈ marks a conversion by molar mass, not a printed value. Read-outs that look alike come from different tables or passages of the source.

Legend:
[1] = tested on: Streptococcus pneumoniae Park I; assay: microbe, parasite or virus in culture; assay type: cell-based; details: Streptococcus pneumoniae; read-out: MIC
Experimental: (§1) Especially noteworthy is the improved activity against gram-negative bacteria for several derivatives when compared to the activity of OMT. […] The MIC's in Tables V and VI were determined by standard agar-dilution assays. The MIC's in Table VII were obtained using a conventional broth-dilution microtiter test.

[2] = tested on: Haemophilus influenzae R252; assay: MIC, standard agar-dilution assay (Table V); assay type: cell-based; details: Haemophilus influenzae; H. influenzae R252, ampicillin-resistant strain; agar dilution; read-out: MIC
Experimental: (§2) The MIC's in Tables V and VI were determined by standard agar-dilution assays. The MIC's in Table VII were obtained using a conventional broth-dilution microtiter test.

[3] = tested on: Streptococcus pyogenes C203; assay: MIC, standard agar-dilution assay (Table V); assay type: cell-based; details: Streptococcus pyogenes, C203
Experimental: as §2

[4] = tested on: Haemophilus influenzae Holt; assay: MIC, standard agar-dilution assay (Table V); assay type: cell-based; details: Haemophilus influenzae
Experimental: as §2

[5] = tested on: Pasteurella hemolytica 22C; assay: MIC, broth-dilution microtiter test (Table VII); assay type: cell-based; details: Pasteurella, P. hemolytica 22C, read-out: MIC
How it was run: (§3)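 Broth microdilution, run as a conventional microtiter test, supplied MICs for the gram-positive S. aureus and the Pasteurella isolates. Enterobacter data instead rest on a standard agar-dilution procedure.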

[6] = tested on: Pasteurella multocida 22A; assay: MIC, broth-dilution microtiter test (Table VII); assay type: cell-based; details: Pasteurella multocida, 22A
How it was run: (§4)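 Serial compound dilutions were incorporated into agar for testing E. aerogenes. Dilutions in broth, arranged in microtiter wells, were used for S. aureus and P. multocida.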

[7] = tested on: Pasteurella multocida 68C; assay: MIC, broth-dilution microtiter test (Table VII); assay type: cell-based; details: Pasteurella multocida; P. multocida 68C; broth-dilution microtiter; read-out: MIC
How it was run: as §4

[8] = tested on: Pasteurella multocida 17E; assay: MIC, broth-dilution microtiter test (Table VII); assay type: cell-based; details: Pasteurella multocida; P. multocida 17E, bovine isolate; broth-dilution microtiter; read-out: MIC
How it was run: as §4

[9] = tested on: Pasteurella hemolytica 41D; assay: MIC, broth-dilution microtiter test (Table VII); assay type: cell-based; details: Pasteurella, P. hemolytica 41D, read-out: MIC
How it was run: as §3

[10] = tested on: Mycoplasma synoviae; assay: MIC, broth-dilution microtiter test (Table VII); assay type: cell-based; details: Mycoplasmopsis synoviae; M. synoviae; broth-dilution microtiter; read-out: MIC
Experimental: as §1

[11] = tested on: Mycoplasma gallisepticum; assay: MIC, broth-dilution microtiter test (Table VII); assay type: cell-based; details: Mycoplasmoides gallisepticum; M. gallisepticum; broth-dilution microtiter; read-out: MIC
Experimental: as §1

[12] = tested on: Pasteurella hemolytica 23C; assay: MIC, broth-dilution microtiter test (Table VII); assay type: cell-based; details: Pasteurella, P. hemolytica 23C, read-out: MIC
How it was run: as §3

[13] = tested on: Pasteurella multocida 60A; assay: MIC, broth-dilution microtiter test (Table VII); assay type: cell-based; details: Pasteurella multocida; P. multocida 60A, avian isolate; broth-dilution microtiter; read-out: MIC
How it was run: as §4

[14] = tested on: Streptococcus sp. 80; assay: MIC, broth-dilution microtiter test (Table VII); assay type: cell-based; details: Streptococcus sp. 80; broth-dilution microtiter; read-out: MIC
Experimental: as §1

[15] = tested on: Pasteurella multocida 40G; assay: MIC, broth-dilution microtiter test (Table VII); assay type: cell-based; details: Pasteurella multocida; P. multocida 40G; broth-dilution microtiter; read-out: MIC
How it was run: as §4

[16] = tested on: Mycoplasma hyorhinis; assay: MIC, broth-dilution microtiter test (Table VII); assay type: cell-based; details: M. hyorhinis; broth-dilution microtiter; read-out: MIC
Experimental: as §1

[17] = tested on: Staphylococcus aureus; assay: MIC, broth-dilution microtiter test (Table VII); assay type: cell-based; details: Staphylococcus aureus; S. aureus; broth-dilution microtiter; read-out: MIC
How it was run: as §4

[18] = tested on: Proteus rettgeri PR7; assay: MIC, standard agar-dilution assay (Table VI); assay type: cell-based; details: Providencia rettgeri; P. rettgeri PR7; agar dilution; read-out: MIC
Experimental: as §1

[19] = tested on: Proteus morganii PR15; assay: MIC, standard agar-dilution assay (Table VI); assay type: cell-based; details: Morganella morganii, PR15
Experimental: as §1

[20] = tested on: Proteus inconstans PR33; assay: MIC, standard agar-dilution assay (Table VI); assay type: cell-based; details: Providencia alcalifaciens; P. inconstans PR33; agar dilution; read-out: MIC
Experimental: as §1

[21] = tested on: Enterobacter cloacae EB5; assay: MIC, standard agar-dilution assay (Table VI); assay type: cell-based; details: E. cloacae EB5, agar dilution, read-out: MIC
Experimental: as §1

[22] = tested on: Shigella sonnei N9; assay: MIC, standard agar-dilution assay (Table V); assay type: cell-based
How it was run: (§5)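 Growth inhibition in liquid medium, in a routine microtiter broth-dilution series, gave the MIC against staphylococci and pasteurellae; the gram-negative enteric strain was tested by conventional agar dilution instead.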

[23] = tested on: Staphylococcus aureus S13E; assay: MIC, standard agar-dilution assay (Table V); assay type: cell-based; details: Staphylococcus aureus, S13E
Experimental: as §1

[24] = tested on: Staphylococcus aureus V41; assay: MIC, standard agar-dilution assay (Table V); assay type: cell-based; details: Staphylococcus aureus, V41
Experimental: as §1

[25] = tested on: Klebsiella pneumoniae KAE; assay: MIC, standard agar-dilution assay (Table V); assay type: cell-based; details: Klebsiella pneumoniae; K. pneumoniae KAE; agar dilution; read-out: MIC
How it was run: as §5

[26] = tested on: Escherichia coli EC14; assay: MIC, standard agar-dilution assay (Table V); assay type: cell-based; details: Escherichia coli; E. coli EC14; agar dilution; read-out: MIC
How it was run: as §5

[27] = tested on: Escherichia coli N10; assay: MIC, standard agar-dilution assay (Table V); assay type: cell-based; details: Escherichia coli, N10
How it was run: as §5

[28] = tested on: Staphylococcus aureus X1.1; assay: MIC, standard agar-dilution assay (Table V); assay type: cell-based; details: Staphylococcus aureus, X1.1
Experimental: as §1

[29] = tested on: Staphylococcus epidermidis EPI2; assay: MIC, standard agar-dilution assay (Table V); assay type: cell-based; details: Staphylococcus epidermidis; S. epidermidis EPI2; agar dilution; read-out: MIC
Experimental: as §1

[30] = tested on: Staphylococcus epidermidis EPI1; assay: MIC, standard agar-dilution assay (Table V); assay type: cell-based; details: Staphylococcus epidermidis; S. epidermidis EPI1; agar dilution; read-out: MIC
Experimental: as §1

[31] = tested on: Streptococcus Group D X66; assay: MIC, standard agar-dilution assay (Table V); assay type: cell-based
Experimental: as §1

[32] = tested on: Klebsiella pneumoniae X26; assay: MIC, standard agar-dilution assay (Table V); assay type: cell-based; details: Klebsiella pneumoniae, X26
Experimental: as §1

[33] = tested on: Staphylococcus aureus X400; assay: MIC, standard agar-dilution assay (Table V); assay type: cell-based; details: Staphylococcus aureus, X400
Experimental: as §1

[34] = tested on: Streptococcus Group 9960; assay: MIC, standard agar-dilution assay (Table V); assay type: cell-based; details: GROUP9960
Experimental: as §1

[35] = tested on: Streptococcus pyogenes C203; assay: ED50 in mice experimentally infected with S. pyogenes C203 (Table VIII); assay type: in vivo; details: doses given 1 and 4 hours postinfection
Experimental: The C-23 modified derivatives of OMT of this invention have shown in vivo antimicrobial activity against experimental infections. When two doses of test compound were administered to mice experimentally infected with a gram-positive bacterium, S. pyogenes C203, the activity observed was measured as an ED50 value [effective dose in mg/kg to protect 50% of the test animals: see Warren Wick, et al., J. Bacteriol. 81, 233-235 (1961)].

CCC1OC(=O)CC(O)C(C)C(OC2OC(C)C(O)C(N(C)C)C2O)C(CC=O)CC(C)C(=O)C=CC(C)=CC1CSc1nnc(C)s1 (stereo not drawn) [Compound 3, 23-Deoxy-23-(5-methyl-1,3,4-thiadiazol-2-yl)thio-OMT]
MIC [1]: 0.06 µg/mL (≈ 0.0843 µM)
MIC [2]: 2 µg/mL (≈ 2.81 µM)
MIC [3]: 0.125 µg/mL (≈ 0.176 µM)
MIC [4]: 2 µg/mL (≈ 2.81 µM)
MIC [5]: 12.5 µg/mL (≈ 17.6 µM)
MIC [6]: 3.12 µg/mL (≈ 4.38 µM)
MIC [7]: 6.25 µg/mL (≈ 8.78 µM)
MIC [8]: 6.25 µg/mL (≈ 8.78 µM)
MIC [9]: 6.25 µg/mL (≈ 8.78 µM)
MIC [10]: 0.39 µg/mL (≈ 0.548 µM)
MIC [11]: 0.19 µg/mL (≈ 0.267 µM)
MIC [12]: 6.25 µg/mL (≈ 8.78 µM)
MIC [13]: 6.25 µg/mL (≈ 8.78 µM)
MIC [14]: 0.39 µg/mL (≈ 0.548 µM)
MIC [15]: 1.56 µg/mL (≈ 2.19 µM)
MIC [16]: 6.25 µg/mL (≈ 8.78 µM)
MIC [17]: 0.78 µg/mL (≈ 1.1 µM)
MIC [18]: 64 µg/mL (≈ 89.9 µM)
MIC [19]: 64 µg/mL (≈ 89.9 µM)
MIC [20]: > 128 µg/mL
MIC [21]: > 128 µg/mL
MIC [22]: 64 µg/mL (≈ 89.9 µM)
MIC [23]: 0.25 µg/mL (≈ 0.351 µM)
MIC [24]: 0.25 µg/mL (≈ 0.351 µM)
MIC [25]: > 128 µg/mL
MIC [26]: 64 µg/mL (≈ 89.9 µM)
MIC [27]: 64 µg/mL (≈ 89.9 µM)
MIC [28]: 0.25 µg/mL (≈ 0.351 µM)
MIC [29]: 0.25 µg/mL (≈ 0.351 µM)
MIC [30]: 0.125 µg/mL (≈ 0.176 µM)
MIC [31]: 0.25 µg/mL (≈ 0.351 µM)
MIC [32]: 4 µg/mL (≈ 5.62 µM)
MIC [33]: 0.25 µg/mL (≈ 0.351 µM)
MIC [34]: 0.25 µg/mL (≈ 0.351 µM)
ED50 ([35]; C203, mice, oral, read-out: ED50, Oral): 81 mg/kg
ED50 ([35]; C203, sc, mice, subcutaneous, read-out: ED50, Subcutaneous): 22.3 mg/kg
